Source: ChEMBL document CHEMBL5465560, “Selectivity Literature for EUbOPEN Chemogenomic Library” (2024)
pIC50: −log10 of the molar value.

What was measured:
[1] = target: RAC-beta serine/threonine-protein kinase (Homo sapiens) (UniProt P31751); assay: Selectivity interaction (Kinase panel (KiNativ target engagement assay in Jurkat cells)) EUB0001635a AKT2; assay type: cell-based; settings: at 1 µM
[2] = target: Tyrosine-protein kinase JAK1 (Homo sapiens, UniProt P23458); assay: Selectivity interaction (KinomeScan (DiscoverX)) EUB0000595a JAK1; settings: at 10 µM
Tyrosine-protein kinase JAK1, sequence (P23458 whole entry): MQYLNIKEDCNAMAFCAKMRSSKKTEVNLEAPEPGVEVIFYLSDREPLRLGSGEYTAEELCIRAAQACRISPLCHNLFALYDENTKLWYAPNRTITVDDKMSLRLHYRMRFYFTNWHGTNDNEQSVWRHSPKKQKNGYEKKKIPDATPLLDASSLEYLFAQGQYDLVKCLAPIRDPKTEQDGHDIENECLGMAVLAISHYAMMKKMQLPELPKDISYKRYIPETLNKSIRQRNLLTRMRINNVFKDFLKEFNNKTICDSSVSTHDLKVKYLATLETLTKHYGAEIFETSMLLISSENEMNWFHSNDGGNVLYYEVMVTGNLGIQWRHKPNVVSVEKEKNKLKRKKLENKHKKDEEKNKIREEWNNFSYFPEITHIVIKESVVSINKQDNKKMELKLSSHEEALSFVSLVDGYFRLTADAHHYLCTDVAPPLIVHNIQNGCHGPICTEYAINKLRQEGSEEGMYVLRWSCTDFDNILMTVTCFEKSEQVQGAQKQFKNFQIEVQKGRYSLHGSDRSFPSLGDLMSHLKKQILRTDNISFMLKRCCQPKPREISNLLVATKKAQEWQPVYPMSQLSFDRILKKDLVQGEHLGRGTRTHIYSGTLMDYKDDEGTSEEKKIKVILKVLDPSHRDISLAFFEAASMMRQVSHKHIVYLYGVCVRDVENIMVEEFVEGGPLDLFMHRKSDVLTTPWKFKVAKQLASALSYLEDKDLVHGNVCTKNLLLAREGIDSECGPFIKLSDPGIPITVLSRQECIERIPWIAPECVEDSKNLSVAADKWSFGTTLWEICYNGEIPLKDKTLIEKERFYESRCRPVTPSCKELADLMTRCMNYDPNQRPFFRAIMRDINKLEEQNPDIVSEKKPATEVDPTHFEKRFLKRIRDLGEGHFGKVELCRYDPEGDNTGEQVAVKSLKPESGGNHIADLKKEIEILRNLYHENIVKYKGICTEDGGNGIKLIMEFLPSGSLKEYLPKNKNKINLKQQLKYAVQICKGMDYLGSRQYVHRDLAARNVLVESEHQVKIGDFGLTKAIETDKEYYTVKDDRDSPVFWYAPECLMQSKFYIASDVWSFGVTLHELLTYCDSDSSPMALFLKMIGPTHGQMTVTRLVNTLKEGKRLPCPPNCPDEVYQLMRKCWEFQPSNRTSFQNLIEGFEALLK

[3] = target: T1, Serine/threonine-protein kinase Nek2 (Homo sapiens) (UniProt P51955); assay: Selectivity interaction (KinomeScan (DiscoverX)) EUB0000666a NEK2; settings: at 10 µM
T1 sequence (whole entry): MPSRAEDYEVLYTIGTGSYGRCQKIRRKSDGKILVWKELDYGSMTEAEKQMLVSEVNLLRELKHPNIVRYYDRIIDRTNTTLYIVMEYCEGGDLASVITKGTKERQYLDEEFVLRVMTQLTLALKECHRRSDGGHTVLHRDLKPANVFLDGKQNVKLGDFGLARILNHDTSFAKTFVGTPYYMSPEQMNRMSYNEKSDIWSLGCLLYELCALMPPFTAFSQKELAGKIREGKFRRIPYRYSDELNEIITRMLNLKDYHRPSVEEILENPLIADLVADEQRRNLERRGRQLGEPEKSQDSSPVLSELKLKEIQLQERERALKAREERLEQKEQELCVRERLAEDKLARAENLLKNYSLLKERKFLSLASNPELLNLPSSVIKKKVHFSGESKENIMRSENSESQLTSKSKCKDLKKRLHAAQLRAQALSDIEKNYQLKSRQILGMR

[4] = target: MAP kinase-interacting serine/threonine-protein kinase 2 (Homo sapiens, UniProt Q9HBH9); assay: Selectivity interaction (Kinase panel (33PanQinase(R) Activity Assay)) EUB0000877a MKNK2
MAP kinase-interacting serine/threonine-protein kinase 2, sequence (Q9HBH9 whole entry): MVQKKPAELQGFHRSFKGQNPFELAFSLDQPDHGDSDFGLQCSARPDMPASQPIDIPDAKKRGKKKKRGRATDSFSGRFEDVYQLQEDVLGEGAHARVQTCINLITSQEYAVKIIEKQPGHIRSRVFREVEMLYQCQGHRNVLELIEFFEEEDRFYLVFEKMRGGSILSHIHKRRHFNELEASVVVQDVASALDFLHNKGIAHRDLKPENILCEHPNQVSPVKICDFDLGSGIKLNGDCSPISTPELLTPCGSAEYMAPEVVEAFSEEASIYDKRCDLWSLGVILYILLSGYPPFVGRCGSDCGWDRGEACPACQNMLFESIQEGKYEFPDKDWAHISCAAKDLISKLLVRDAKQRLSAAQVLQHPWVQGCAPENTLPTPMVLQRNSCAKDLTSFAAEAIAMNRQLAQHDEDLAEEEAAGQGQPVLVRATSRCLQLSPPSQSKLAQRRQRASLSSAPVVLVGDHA

[5] = target: T2, Dual serine/threonine and tyrosine protein kinase (Homo sapiens) (UniProt Q6XUX3); assay: Selectivity interaction (KinomeScan (DiscoverX)) EUB0001619a DSTYK; settings: at 1 µM
T2 sequence (whole entry): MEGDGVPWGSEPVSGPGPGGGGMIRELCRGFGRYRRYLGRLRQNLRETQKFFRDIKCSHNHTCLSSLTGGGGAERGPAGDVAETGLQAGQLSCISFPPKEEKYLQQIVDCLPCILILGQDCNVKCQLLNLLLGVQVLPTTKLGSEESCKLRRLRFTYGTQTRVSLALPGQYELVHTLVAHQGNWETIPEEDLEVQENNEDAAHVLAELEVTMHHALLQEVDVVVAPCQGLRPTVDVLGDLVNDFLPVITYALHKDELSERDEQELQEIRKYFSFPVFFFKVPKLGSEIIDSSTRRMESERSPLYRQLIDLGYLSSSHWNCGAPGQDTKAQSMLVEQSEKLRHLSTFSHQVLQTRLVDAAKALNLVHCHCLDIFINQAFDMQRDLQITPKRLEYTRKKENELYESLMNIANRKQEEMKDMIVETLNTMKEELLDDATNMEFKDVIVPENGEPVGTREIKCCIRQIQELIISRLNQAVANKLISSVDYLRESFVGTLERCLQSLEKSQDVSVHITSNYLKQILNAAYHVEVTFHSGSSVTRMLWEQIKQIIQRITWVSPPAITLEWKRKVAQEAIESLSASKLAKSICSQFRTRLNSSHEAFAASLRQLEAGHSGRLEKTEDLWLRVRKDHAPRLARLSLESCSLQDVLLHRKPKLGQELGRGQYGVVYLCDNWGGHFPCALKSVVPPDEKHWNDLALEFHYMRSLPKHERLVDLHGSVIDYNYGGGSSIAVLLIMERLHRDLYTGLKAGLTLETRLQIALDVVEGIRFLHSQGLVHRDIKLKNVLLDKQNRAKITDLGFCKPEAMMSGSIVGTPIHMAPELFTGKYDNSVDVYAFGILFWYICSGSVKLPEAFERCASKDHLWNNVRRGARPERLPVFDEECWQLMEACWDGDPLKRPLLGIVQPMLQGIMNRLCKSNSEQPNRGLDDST

[6] = target: T3, PAN2-PAN3 deadenylation complex subunit PAN3 (Homo sapiens) (UniProt Q58A45); assay: Selectivity interaction (ActivX KiNativ screen (ex vivo kinase selectivity in human PBMCs)) EUB0001619a PAN3; assay type: cell-based; settings: PBMC, at 1 µM
T3 sequence (whole entry): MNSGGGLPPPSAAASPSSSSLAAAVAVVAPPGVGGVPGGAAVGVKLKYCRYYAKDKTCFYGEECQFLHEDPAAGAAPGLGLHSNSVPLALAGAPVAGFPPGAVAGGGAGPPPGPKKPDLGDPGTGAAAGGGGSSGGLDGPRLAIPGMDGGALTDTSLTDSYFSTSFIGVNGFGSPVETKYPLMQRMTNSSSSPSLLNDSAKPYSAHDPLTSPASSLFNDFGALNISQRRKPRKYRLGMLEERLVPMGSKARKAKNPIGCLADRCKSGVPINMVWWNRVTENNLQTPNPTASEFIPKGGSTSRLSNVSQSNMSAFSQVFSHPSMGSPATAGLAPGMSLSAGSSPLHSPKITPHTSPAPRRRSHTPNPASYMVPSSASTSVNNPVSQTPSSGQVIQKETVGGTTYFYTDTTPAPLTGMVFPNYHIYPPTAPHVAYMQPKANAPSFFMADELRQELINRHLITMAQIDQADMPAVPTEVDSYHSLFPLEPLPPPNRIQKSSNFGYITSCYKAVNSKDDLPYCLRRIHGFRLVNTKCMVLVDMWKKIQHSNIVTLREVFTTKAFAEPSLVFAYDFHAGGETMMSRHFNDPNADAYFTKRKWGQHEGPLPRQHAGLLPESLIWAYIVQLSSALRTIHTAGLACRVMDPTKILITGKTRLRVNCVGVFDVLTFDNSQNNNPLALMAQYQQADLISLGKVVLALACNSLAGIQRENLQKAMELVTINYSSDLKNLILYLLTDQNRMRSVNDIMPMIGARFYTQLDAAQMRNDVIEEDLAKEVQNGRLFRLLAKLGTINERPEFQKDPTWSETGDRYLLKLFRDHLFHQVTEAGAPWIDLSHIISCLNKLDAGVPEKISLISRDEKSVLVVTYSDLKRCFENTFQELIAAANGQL

RAC-beta serine/threonine-protein kinase (Homo sapiens), sequence (P31751 whole entry): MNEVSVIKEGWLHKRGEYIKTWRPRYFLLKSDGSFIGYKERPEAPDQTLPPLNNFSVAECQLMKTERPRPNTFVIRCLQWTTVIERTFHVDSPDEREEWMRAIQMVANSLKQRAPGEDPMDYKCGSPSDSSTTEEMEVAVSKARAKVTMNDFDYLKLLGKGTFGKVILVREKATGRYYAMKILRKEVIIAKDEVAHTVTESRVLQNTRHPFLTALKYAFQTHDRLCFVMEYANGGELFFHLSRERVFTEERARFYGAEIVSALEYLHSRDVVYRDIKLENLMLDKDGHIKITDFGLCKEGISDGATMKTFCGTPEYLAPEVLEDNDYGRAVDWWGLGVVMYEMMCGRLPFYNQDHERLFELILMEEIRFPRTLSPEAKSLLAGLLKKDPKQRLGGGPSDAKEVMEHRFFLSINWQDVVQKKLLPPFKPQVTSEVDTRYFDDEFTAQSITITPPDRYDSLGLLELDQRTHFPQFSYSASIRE

## C=CC(=O)Nc1ccc(C(=O)Nc2[nH]nc3c2CN(C(=O)N[C@H](CN(C)C)c2ccccc2)C3(C)C)cc1
[1]
  % of engagement: -11.1%

## COCC(=O)NC/C=C/c1ccc2ncnc(Nc3ccc(Oc4ccc(C)nc4)c(C)c3)c2c1 [CP-724714]
[2]
  % of control: 100%

## O=C(NOC[C@H](O)CO)c1ccc(F)c(F)c1Nc1ccc(I)cc1F
[3]
  % of control: 70%

## CCC(=O)N1CC[C@H](Nc2ncnc3c2CN(c2cnc(OC)c(C(F)(F)F)c2)CC3)C1 [LENIOLISIB]
[4]
  pIC50: < 5.00

## N#Cc1cccc(-c2c[nH]c3ncnc(N4CCOCC4)c23)c1
[5]
  % of control: 91%
[6]
  % of inhibition: 15%
